Assay results from patent US20050222130A1, “Inhibitors of RhoA kinase production/activation for relaxing the features of and/or for decontracting the skin” (L'OREAL, priority 2004, published 2005).

Test system: dermal equivalent comprising a collagen matrix seeded with normal human fibroblasts
Assay: Spontaneous contraction of attached dermal equivalent (dermo-decontracting effect)
Assay type: cell-based
Details: for inhibition of contraction of the dermal equivalent (in words): different concentrations
Excerpt: The principle of this test entails studying the dermo-decontracting effect of (R)(+)-trans-N-(4-pyridyl)-4-(1-aminoethyl)cyclohexanecarboxamide dihydrochloride (Y-27632) on a model of dermal equivalent comprising a collagen matrix seeded with normal human fibroblasts. These conditions are intended to mimic in vitro the dermal contractile phenomena that take place during facial expressions. Under these conditions, specifically, the cells spontaneously express tensile forces that induce a retraction of the collagen gel. […] Measurement of this area makes it possible to evaluate the relaxation effects of substances placed in contact beforehand with the dermal equivalent. Four series of 3 attached dermal equivalents containing normal human fibroblasts are prepared: a control series without any treatment, and three series treated with (R)(+)-trans-N-(4-pyridyl)-4-(1-aminoethyl)cyclohexanecarboxamide dihydrochloride at different concentrations. The experiment is repeated three times. The dermal equivalents are prepared as described in Asselineau et al., Exp. Cell. Res. 1985, 159, 536-539; Models in Dermatology, 1987, Vol. 33, pp. 1-7, in the following proportions: [table] The treated dermal equivalent differs from the control dermal equivalent in that variable amounts of (R)(+)-trans-N-(4-pyridyl)-4-(1-aminoethyl)cyclohexanecarboxamide dihydrochloride are added thereto. The collagen used is type I collagen (commercial solution), but a collagen of type III or IV may also be used. It is extracted from rat tails or from calf skin by acidic hydrolysis and stored in acidic medium at +4° C.; it naturally polymerizes on heating to 37° C. and on reducing the level of acidity. The collagen is predialyzed against successive baths of water+acetic acid. The protocol is as follows: 1.76×MEM medium in the presence of additives (1% glutamine, 1% nonessential amino acids, 1% sodium pyruvate, 1% fungizone and 1% penicillin/streptomycin), foetal calf serum and 0.1 N NaOH are introduced into a sterile flask tube. The fibroblasts isolated from human skin explants are then added at a concentration of 1.4×10^5 cells per 1 ml of culture medium. A volume/volume mixture of collagen in acetic acid to 1/1000 is then added slowly, against the wall of the tube so as to observe the appearance of a whitish cloud. The whole is then mixed cautiously and distributed in the wells of a 12-well culture plate (of the type Costar reference 3512) at a rate of 0.5 ml of mixture per cm^2. The culture plate is then placed in an incubator at 37° C. with 5% CO2. Once formed after polymerization of the collagen, the dermal equivalents are left adhering to the culture support for 3 days and then detached from the support in order for the contraction to be able to start. These attached dermal equivalents are removed from the incubator for the taking of the images to measure their surface area, for each point of the contraction kinetics (0, 4, 8 and 24 hours). They are immediately returned to the incubator between each measuring point. The evaluation of the spontaneous contraction of the treated dermal equivalents (treated with (R)(+)-trans-N-(4-pyridyl)-4-(1-aminoethyl)cyclohexanecarboxamide dihydrochloride) and control dermal equivalents (without (R)(+)-trans-N-(4-pyridyl)-4-(1-aminoethyl)cyclohexanecarboxamide) is performed by measuring their surface area, at different times after the start of the spontaneous contraction. To do this, a digital image is acquired for each treated or untreated dermal equivalent using a camera (Sony DXC-107P CCD-Iris camera) and the area is then calculated on each image using an image analysis system (Zeiss Axiovision 3.0). […]

[1] = 0.1 μM, 4 hours after detaching from support
[2] = 0.1 μM, 8 hours after detaching from support
[3] = 0.1 μM, 24 hours after detaching from support
[4] = 1 μM, 4 hours after detaching from support
[5] = 1 μM, 8 hours after detaching from support
[6] = 1 μM, 24 hours after detaching from support

SMILES | reduction of percentage of contraction relative to the control [1] | reduction of percentage of contraction relative to the control [2] | reduction of percentage of contraction relative to the control [3] | reduction of percentage of contraction relative to the control [4] | reduction of percentage of contraction relative to the control [5] | reduction of percentage of contraction relative to the control [6] | reduction of percentage of contraction relative to the control (5 μM, 4 hours after detaching from support) | reduction of percentage of contraction relative to the control (5 μM, 8 hours after detaching from support) | reduction of percentage of contraction relative to the control (5 μM, 24 hours after detaching from support) | inhibition of contraction of the dermal equivalent (in words) | effectiveness compared with Y-27632 at the same concentrations (same concentrations) | reversibility of the inhibition of contraction
O=S(=O)(c1cccc2cnccc12)N1CCCNCC1 [1-(5-isoquinolinesulfonyl)homopiperazine] | 2.6% | 2.4% | 1.5% | 8% | 9.5% | 8.2% | 17% | 19.4% | 22.2% | dose-dependent inhibition of contraction | less effective than | –
C[C@@H](N)[C@H]1CC[C@H](C(=O)Nc2ccncc2)CC1.Cl.Cl [(R)(+)-trans-N-(4-pyridyl)-4-(1-aminoethyl)cyclohexanecarboxamide dihydrochloride] | 6.1% | 6.4% | 7.2% | 20.6% | 24.4% | 29.3% | – | – | – | dose-dependent inhibition of contraction | – | reversible
